Measured values published in patent US20210332014A1, “CABOZANTINIB MALATE CRYSTAL FORM, PREPARATION METHOD AND USE THEREOF” (Crystal Pharmaceutical (Suzhou) Co., Ltd., priority 2018, published 2021).

Experiments:
Assay type in all cases: physicochemical
[1] = Kinetic solubility study (saturated solutions, HPLC); details: for Solubility in H2O / Solubility in FaSSIF / Solubility in FeSSIF: 20 mg in 1.5 mL
Protocol: The HPLC method parameters for solubility test in the present disclosure are as follows: • 1. Column: Waters XBridge C18 150×4.6mm, 5 μm • 2. Mobile Phase: A: 0.1% TFA in H2O • B: 0.1% TFA in Acetonitrile • Gradient:
• 3. Flow rate: 1 mL/min • 4. Injection Volume: 5 μL • 5. Detection wavelength: 250 nm • 6. Column Temperature: 40° C. • 7. Diluent: Acetonitrile/H2O (9:1, v/v)
• Simulated gastrointestinal fluids such as FaSSIF (Fasted state simulated intestinal fluids) and FeSSIF (Fed state simulated intestinal fluids) are biorelevant media. […] After equilibrated for 1 h and 4 h, concentrations (mg/mL) of the saturated solutions were measured by HPLC.
• 20 mg of Form CSIII and 20 mg of crystalline forms in the prior arts were suspended into 1.5 mL of SGF, 1.5 mL of FaSSIF, 1.5 mL of FeSSIF and 1.5 mL of water to get saturated solutions. After equilibrated for 1 h and 4 h, concentrations (mg/mL) of the saturated solutions were measured by HPLC.

[2] = Flowability (compressibility index / Carr index); details: for Compressibility index: c=(ρf−ρ0)/ρf
Protocol: Compressibility index test method is as follows: a certain amount of powder was added into a measuring cylinder and bulk volume was recorded. Then the powder was tapped to make it in the tightest state and the tapped volume was recorded. The bulk density (ρ0), tapped density (ρf) were calculated and compressibility index was calculated according to c=(ρf−ρ0)/ρf. • Criteria of flowability according to United States Pharmacopoeia USP1174, which is shown in Table 7.

[3] = Compressibility (tensile strength of manually compressed tablet); details: for Average tensile strength: 80 mg, φ6 mm round tooling, 10 KN, average of three tests
Protocol: • Manual tablet press was used for compression. 80 mg of Form CSIII and crystalline forms in the prior art were weighed and added into the dies of a φ6 mm round tooling, respectively, compressed at 10 KN manually, then stored at room temperature for 24 h until complete elastic recovery. Hardness (H) was tested with an intelligent tablet hardness tester. Diameter (D) and thickness (L) were tested with caliper. Tensile strength of the powder was calculated with the following formula: T=2H/πDL.

[4] = Adhesiveness (material sticking to the punch); details: for Average amount sticking to the punch / Maximum amount sticking to the punch: 30 mg, φ8 mm round tooling, 10 KN held 30 s
Protocol: • 30 mg of Form CSIII and crystalline forms in the prior art were weighed separately and then added into the dies of φ8 mm round tooling, compressed at 10 KN and held for 30 s. The punch was weighed and amount of material sticking to the punch was calculated. The compression was repeated twice and the cumulative amount, maximum amount and average amount of material sticking to the punch during the compression were recorded.

[5] = Dynamic Vapor Sorption (DVS); details: humidity lower than 30% RH, 25° C.
Protocol: Dynamic Vapor Sorption (DVS) is measured via an SMS (Surface Measurement Systems Ltd.) intrinsic DVS instrument. […] Typical Parameters for DVS test are as follows: • Temperature: 25° C. • Gas and flow rate: N2, 200 mL/min • dm/dt=0.002 • RH range: 0% RH to 95% RH

[6] = Particle size distribution (laser particle size analyzer); details: wet mode, Isopar G
Protocol: The particle size distribution data in the present disclosure were acquired by an [MUT] laser particle size analyzer of Microtrac. Microtrac [MUT] is equipped with an SDC (Sample Delivery Controller). The test is carried out in wet mode, and the dispersion medium is Isopar G. The parameters are as follows:

SMILES: COc1cc2nccc(Oc3ccc(NC(=O)C4(C(=O)Nc5ccc(F)cc5)CC4)cc3)c2cc1OC.O=C(O)C[C@H](O)C(=O)O [Form CSI, N-(4-(6,7-dimethoxyquinolin-4-yloxy)phenyl)-N′-(4-fluorophenyl) cyclopropane-1,1-dicarboxamide (S)-malate]
- Solubility compared with prior art [1]: higher than that of prior art
- Solubility in water relative to Form M4 ([1]; water): over five times more
- Solubility in water relative to Form N-2 ([1]; water): twice
- Solubility in H2O ([1]; water, equilibrated 1 h): 350 µg/mL
- Solubility in H2O ([1]; water, equilibrated 4 h): 360 µg/mL

SMILES: COc1cc2nccc(Oc3ccc(NC(=O)C4(C(=O)Nc5ccc(F)cc5)CC4)cc3)c2cc1OC.O=C(O)C[C@H](O)C(=O)O [Form CSIII, N-(4-(6,7-dimethoxyquinolin-4-yloxy)phenyl)-N′-(4-fluorophenyl) cyclopropane-1,1-dicarboxamide (S)-malate]
- Solubility compared with prior art [1]: higher than that of prior art
- Solubility in FaSSIF ([1]; equilibrated 1 h): 25 µg/mL
- Solubility in FaSSIF ([1]; equilibrated 4 h): 8.3 µg/mL
- Solubility relative to Form N-2 and Form M4 ([1]; FeSSIF and water): twice
- Solubility in FeSSIF ([1]; equilibrated 1 h): 130 µg/mL
- Solubility in FeSSIF ([1]; equilibrated 4 h): 120 µg/mL
- Solubility in H2O ([1]; water, equilibrated 1 h): 300 µg/mL
- Solubility in H2O ([1]; water, equilibrated 4 h): 240 µg/mL
- Bulk density [2]: 0.319 g/mL
- Flowability compared with prior art [2]: remarkably superior to that of prior art
- Tapped density [2]: 0.376 g/mL
- Compressibility index [2]: 15%
- Compressibility compared with prior art [3]: better compressibility
- Average tensile strength [3]: 1.56 MPa
- Adhesiveness compared with prior art form [4]: superior to the prior art form
- Maximum amount sticking to the punch of the prior art relative to Form CSIII [4]: over twice
- Average amount sticking to the punch [4]: 0.045 mg
- Maximum amount sticking to the punch [4]: 0.06 mg

SMILES: COc1cc2nccc(Oc3ccc(NC(=O)C4(C(=O)Nc5ccc(F)cc5)CC4)cc3)c2cc1OC.O=C(O)C[C@H](O)C(=O)O [Form M2, N-(4-(6,7-dimethoxyquinolin-4-yloxy)phenyl)-N′-(4-fluorophenyl) cyclopropane-1,1-dicarboxamide (S)-malate]
- Behaviour under humidity (DVS) [5]: dehydrated rapidly
- D90 particle size [6]: 244.3 μm

SMILES: COc1cc2nccc(Oc3ccc(NC(=O)C4(C(=O)Nc5ccc(F)cc5)CC4)cc3)c2cc1OC.O=C(O)C[C@H](O)C(=O)O [Form M4, N-(4-(6,7-dimethoxyquinolin-4-yloxy)phenyl)-N′-(4-fluorophenyl) cyclopropane-1,1-dicarboxamide (S)-malate]
- Solubility in FaSSIF ([1]; equilibrated 1 h): 12 µg/mL
- Solubility in FaSSIF ([1]; equilibrated 4 h): 1.9 µg/mL
- Solubility in FeSSIF ([1]; equilibrated 1 h): 62 µg/mL
- Solubility in FeSSIF ([1]; equilibrated 4 h): 65 µg/mL
- Solubility in H2O ([1]; water, equilibrated 1 h): 72 µg/mL
- Solubility in H2O ([1]; water, equilibrated 4 h): 2.8 µg/mL
- Bulk density [2]: 0.251 g/mL
- Tapped density [2]: 0.387 g/mL
- Compressibility index [2]: 35%
- Average tensile strength [3]: 1.23 MPa
- Average amount sticking to the punch [4]: 0.08 mg
- Maximum amount sticking to the punch [4]: 0.11 mg

SMILES: COc1cc2nccc(Oc3ccc(NC(=O)C4(C(=O)Nc5ccc(F)cc5)CC4)cc3)c2cc1OC.O=C(O)C[C@H](O)C(=O)O [Form N-2, N-(4-(6,7-dimethoxyquinolin-4-yloxy)phenyl)-N′-(4-fluorophenyl) cyclopropane-1,1-dicarboxamide (S)-malate]
- Solubility in FaSSIF ([1]; equilibrated 1 h): 11 µg/mL
- Solubility in FaSSIF ([1]; equilibrated 4 h): 7.9 µg/mL
- Solubility in FeSSIF ([1]; equilibrated 1 h): 47 µg/mL
- Solubility in FeSSIF ([1]; equilibrated 4 h): 43 µg/mL
- Solubility in H2O ([1]; water, equilibrated 1 h): 150 µg/mL
- Solubility in H2O ([1]; water, equilibrated 4 h): 150 µg/mL
- Bulk density [2]: 0.194 g/mL
- Tapped density [2]: 0.256 g/mL
- Compressibility index [2]: 24%
- Average tensile strength [3]: 1.02 MPa
- Average amount sticking to the punch [4]: 0.20 mg
- Maximum amount sticking to the punch [4]: 0.26 mg
